Measurements reported in ChEMBL document CHEMBL1151378, “Anticancer indole alkaloids of Rhazya stricta” (1981).
Values after ≈ are worked out from the molar mass of the structure shown.

Experiments:
KB = assay: Cytotoxicity against human KB cells; assay type: functional; details: read-out: ED50 (the source's name)
P388 = assay: Cytotoxicity against mouse P388 cells; assay type: functional; details: read-out: ED50 (the source's name)

SMILES	EC50 (KB) [µg/mL]	EC50 (P388) [µg/mL]
CCC1CCCN(CCc2c([C@@]3(CO)CC[C@@H](CO)c4c(CCN5CCCC(CC)C5)c5ccccc5n43)[nH]c3ccccc23)C1 (stereo partly drawn) [TETRAHYDROSECAMINEDIOL]	0.0038 (≈ 0.00608 µM)	0.33 (≈ 0.528 µM)
CCC1CCCN(CCc2c([C@@]3(COC(C)=O)CC[C@@H](COC(C)=O)c4c(CCN5CCCC(CC)C5)c5ccccc5n43)[nH]c3ccccc23)C1 (stereo partly drawn)	2.4 (≈ 3.39 µM)	1.6 (≈ 2.26 µM)
C/C=C(/C=O)[C@@H]1C[C@H]2c3[nH]c4ccccc4c3CCN2C=C1C(=O)OC [VALLESIACHOTAMINE]	3.56 (≈ 10.2 µM)	1.1 (≈ 3.14 µM)
CCC1CCCN(CCc2c([C@@]3(C(=O)OC)CC[C@@H](C(=O)OC)c4c(CCN5CCCC(CC)C5)c5ccccc5n43)[nH]c3ccccc23)C1 (stereo partly drawn) [TETRAHYDROSECAMINE]	0.69 (≈ 1.01 µM)	0.4 (≈ 0.587 µM)
CCC1CCCN(CCc2c([C@H]3CCCc4c(CCN5CCCC(CC)C5)c5ccccc5n43)[nH]c3ccccc23)C1 (stereo partly drawn)	0.5 (≈ 0.885 µM)	0.29 (≈ 0.513 µM)
C/C=C1/CN2CC[C@]34C(=C(C(=O)OC)[C@H]1C[C@H]23)Nc1ccc(O)cc14 [SEWARINE]		2.7 (≈ 7.98 µM)
C/C=C1/CN2[C@H]3Cc4c([nH]c5ccccc45)[C@@H]2C[C@@H]1[C@@]3(CO)C(=O)OC [POLYNEURIDINE]	> 100	> 100
